Values after ≈ are worked out from the molar mass of the structure shown.
Experiments:
Candida albicans = experiment: Disk diffusion, Candida albicans; type: cell-based; conditions: Fungi, 8.0 mm disks, 10 μL
Protocol: (§1) The disk diffusion method was used for determination of the antimicrobial activity using ampicillin, gentamicin and amphotericin B as reference drugs. The results were recorded for each compounds as the average diameter as inhibition zones (IZ) of bacterial or fungal growth around the discs in mm as shown in Table 2.
(§2) Antimicrobial activities were carried out against highly pathogenic strains; three strains of Gram positive bacteria (Bacillus subtilis, Staphylococcus aureus and Streptococcus faecalis), four strains of Gram negative bacteria (Escherichia coli, Neisseria gonorrhoeae, Pseudomonas aeruginosa and Salmonella typhimurium) and three fungi strains (Aspergillus flavus, Aspergillus fumigatus and Candida albicans) isolated from primary agar plates. Antimicrobial activity of the tested samples was determined using a modified Kriby-Bauer disk diffusion method. Briefly, 100 µL of the test bacteria/fungi were grown in 10 mL of fresh media until they reached a count approximately 10^8 cells/mL for bacteria or 10^5 cells/mL for fungi. 100 µL of microbial suspension was spread onto agar plates corresponding to the broth in which they were maintained. The inoculated plates of bacterial strains were incubated at 35–37 °C for 24–48 h, while the inoculated plates of fungal strains such as A. flavus and A. fumigatus were incubated at 25 °C for 48 h and yeast as C. albicans was incubated at 30 °C for 24–48 h.
(§3) The agar disk diffusion (qualitative) method was used in this investigation for determination of the preliminary antibacterial and antifungal activities. The agar used was Mueller-Hinton agar plates that are rigorously tested for composition and pH. Further the depth of the agar in the plate is a factor to be considered in the disk diffusion method.
(§4) Reference drugs: ampicillin was used as a standard antibacterial drug for Gram positive bacteria, gentamicin as a standard antibacterial drug for Gram negative bacteria and amphotericin B as antifungal standard drug.
(§5) Bacterial and fungal strains were spread onto the surface of the agar plates using sterile cotton swabs. For evaluation of antibacterial activities, blank paper disks (Schleicher & Schuell, Alicante, Spain) with a diameter of 8.0 mm were saturated with 10 μL of tested concentration of the stock solutions. Disks were dried and then placed onto inoculated agar plates. The plates of bacterial strains were reincubated at 35–37 °C for 24–48 h, while the plates of fungal strains such as A. flavus and A. fumigatus were reincubated at 25 °C for 48 h and yeast as C. albicans was reincubated at 30 °C for 24–48 h as mentioned above. […] For an accurate analysis, tests were run in triplicate for each strain to avoid any error as described in Table 2.
Disk diffusion method for filamentous fungi testing by using approved standard method (M02-A11) developed by the CLSI for evaluating the susceptibilities of filamentous fungi to antifungal agents. Disk diffusion method for yeasts developed by using approved standard method (M44-A2) by the CLSI [44]. Agar-based methods such as disk diffusion can be good alternatives because they are simpler and faster than broth-based methods.

SF-268 (CNS cancer) = experiment: In vitro cytotoxicity, SRB cell growth assay, SF-268; conditions: Homo sapiens, SF-268, 48 h, read-out: IC50 (μg/mL) SF-268
Protocol: (§6) The in vitro cytotoxic activity of the newly synthesized compounds against human breast cell line (MCF7), non-small cell lung cancer NCIH460, CNS cancer SF-268 and WI 38 (normal fibroblast cells) were evaluated using doxorubicin as the reference drug according to the method reported by Skehan et al..
(§7) The newly synthesized compounds were evaluated in vitro against three human cancer cell lines; which are MCF-7 (breast adenocarcinoma), NCI-H460 (non-small cell lung cancer) and SF-268 (CNS cancer), and WI 38 (normal fibroblast cells) were used in this study. MCF-7 was obtained from the European Collection of Cell Cultures (ECACC, Salisbury, UK) but NCI-H460, SF-268 and WI 38 were kindly provided by the National Cancer Institute (NCI, Cairo, Egypt). They grow as monolayer and routinely maintained RPMI-1640 medium supplemented with 5% heat inactivated fetal bovine serum (FBS), 2 mM glutamine and antibiotics (penicillin 100 U/mL, streptomycin 100 µg/mL), at 37 °C in a humidified atmosphere containing 5% CO2. Exponentially growing cells were obtained by plating 1.5 × 10^5 cells/mL for MCF-7 and SF-268, and 0.75 × 10^4 cells/mL for NCI-H460 followed by 24 h of incubation. The effect of the vehicle solvent (DMSO) on the growth of these cell lines was evaluated in all experiments by exposing untreated control cells to the maximum concentration (0.5%) of DMSO used in each assay.
(§8) The effect of compounds on the in vitro growth of human tumor cell lines were evaluated according to the procedure adopted by the National Cancer Institute ([…]) in the “In vitro Anticancer Drug Discovery Screen” that uses the protein-binding dye sulforhodamine B (SRB) to assess cell growth. In the assay protocol, all cells were incubated at 37 °C under humidified atmosphere containing 5% CO2. Briefly, exponentially cells growing in 96-well plates were then exposed for 48 h to five serial concentrations of each compound, starting from a maximum concentration of 150 μg/mL. Following this exposure period adherent cells were fixed, washed and stained. The bound stain was solubilized and the absorbance was measured at 492 nm in a plate reader (Bio-Tek Instruments Inc., Power wave XS, Winston, NC, USA). For each test compound and cell line, a dose response curve was obtained and the inhibitory concentration of 50% (IC50), corresponding to the concentration of the compounds that inhibited 50% of the net cell growth was calculated as described elsewhere. Doxorubicin was used as a positive control and tested in the same manner.

Salmonella typhimurium = experiment: MIC by broth dilution, Salmonella typhimurium; type: cell-based; conditions: Salmonella enterica, TYPHIMURIUM, Gram negative, 0.98-125 µg/mL, read-out: Minimum Inhibitory Concentration (MIC) (µg/mL) Salmonella typhimurium
Protocol: (§9) In this study, MIC (quantitative method) was used for evaluation of the antimicrobial activity of tested compounds. Screening was evaluated in vitro using the Broth dilution method according to CLSI [45]. All the bacteria were incubated and activated at 30 °C for 24 h inoculation into nutrient broth and the fungi were incubated in malt extract broth for 48 h. The compounds were dissolved in DMSO and then diluted using […] Mueller-Hinton broth. […] In each case triplicate tests were performed and the average was taken as the final reading. The tubes were then inoculated with the test organisms, grown in their suitable broth at 37 °C for 24 h for tested microorganisms (1 × 10^8 CFU/mL for bacteria and 1 × 10^6 CFU/mL of fungi), each 5 mL received 0.1 mL of the above inoculum and incubated at 37 °C for 24 h.

[1] = system: NCI-H460 (non-small cell lung cancer); experiment: In vitro cytotoxicity, SRB cell growth assay, NCI-H460; conditions: Homo sapiens, NCI-H460, 48 h, read-out: IC50 (μg/mL) NCI-H460
Protocol: as §6, §7, §8

Streptococcus faecalis = experiment: Disk diffusion, Streptococcus faecalis; type: cell-based; conditions: Gram positive, 8.0 mm disks, 10 μL
Protocol: as §1, §2, §3, §4, §5

Pseudomonas aeruginosa = experiment: MIC by broth dilution, Pseudomonas aeruginosa; type: cell-based; conditions: Pseudomonas aeruginosa, Gram negative, 0.98-125 µg/mL, read-out: Minimum Inhibitory Concentration (MIC) (µg/mL) Pseudomonas aeruginosa
Protocol: as §9

Bacillus subtilis = experiment: Disk diffusion, Bacillus subtilis; type: cell-based; conditions: Gram positive, 8.0 mm disks, 10 μL
Protocol: as §1, §2, §3, §4, §5

MIC (Salmonella typhimurium) | melting point | MIC (Pseudomonas aeruginosa) | SMILES | Inhibition Zone Diameter (IZ) (mm) Candida albicans (Candida albicans) | IC50 (SF-268 (CNS cancer)) | IC50 [1] | Inhibition Zone Diameter (IZ) (mm) Streptococcus faecalis (Streptococcus faecalis) | Inhibition Zone Diameter (IZ) (mm) Bacillus subtilis (Bacillus subtilis)
31.2 µg/mL (≈ 93.8 µM) | 122 to 123 °C | 125 µg/mL (≈ 375 µM) | Brc1ccc2nc(N3CCCCC3)c3nnnn3c2c1 [Compound 5a, 8-Bromo-4-(piperidin-1-yl)tetrazolo[1,5-a]quinoxaline] | 12 mm | 0.02 ± 0.008 µg/mL (≈ 0.06 µM) | 0.02 ± 0.006 µg/mL (≈ 0.06 µM) | 9 mm | 13 mm
7.81 µg/mL (≈ 26.8 µM) | – | 125 µg/mL (≈ 429 µM) | Brc1ccc2c(c1)n1nnnc1c1nnnn21 [Compound 11, 9-Bromoditetrazolo[1,5-a:5′,1′-c]quinoxaline] | R (R (IZ = 0 mm)) | 2.86 ± 4.92 µg/mL (≈ 9.83 µM) | 2.83 ± 0.53 µg/mL (≈ 9.72 µM) | 15 mm | 19 mm
1.95 µg/mL (≈ 5.85 µM) | 164 to 166 °C | 125 µg/mL (≈ 375 µM) | Cc1cc(C)n(-c2nc3cc(Br)ccc3nc2NN)n1 [Compound 14, 6-Bromo-3-(3,5-dimethyl-1H-pyrazol-1-yl)-2-hydrazinyl quinoxaline] | R (R (IZ = 0 mm)) | 42.1 ± 5.58 µg/mL (≈ 126 µM) | 38.3 ± 2.35 µg/mL (≈ 115 µM) | 12 mm | 12 mm
0.98 µg/mL (≈ 3.44 µM) | 199 to 201 °C | > 125 µg/mL | Clc1nc2ccc(Br)cc2n2nnnc12 [Compound 4, 8-Bromo-4-chlorotetrazolo[1,5-a]quinoxaline] | 20 mm | 0.06 ± 0.003 µg/mL (≈ 0.211 µM) | 0.01 ± 0.004 µg/mL (≈ 0.0351 µM) | 18 mm | 20 mm
1.95 µg/mL (≈ 4.84 µM) | 232 to 233 °C | 125 µg/mL (≈ 310 µM) | NC1=NN(c2nc3ccc(Br)cc3nc2N2N=C(N)CC2=O)C(=O)C1 [Compound 16, 6-Bromo-2,3-bis(3-amino-1H-pyrazol-5(4H)-one)quinoxaline] | R (R (IZ = 0 mm)) | 49.9 ± 8.64 µg/mL (≈ 124 µM) | 22.9 ± 0.46 µg/mL (≈ 56.9 µM) | 11 mm | 10 mm
1.95 µg/mL (≈ 5.82 µM) | 144 to 146 °C | > 125 µg/mL | Brc1ccc2nc(N3CCOCC3)c3nnnn3c2c1 [Compound 5b, 8-Bromo-4-(morpholin-4-yl)tetrazolo[1,5-a]quinoxaline] | 9 mm | 0.06 ± 0.008 µg/mL (≈ 0.179 µM) | 0.01 ± 0.002 µg/mL (≈ 0.0298 µM) | 11 mm | 17 mm
0.98 µg/mL (≈ 3.64 µM) | – | 125 µg/mL (≈ 465 µM) | NNc1nc2ccc(Br)cc2nc1NN [Compound 9, 6-Bromo-2,3-dihydrazinylquinoxaline] | 11 mm | 38.9 ± 2.63 µg/mL (≈ 145 µM) | 16.4 ± 2.32 µg/mL (≈ 60.8 µM) | 27 mm | 28 mm

SMILES | MIC (Salmonella typhimurium) | melting point | MIC (Pseudomonas aeruginosa) | Inhibition Zone Diameter (IZ) (mm) Candida albicans (Candida albicans) | IC50 (SF-268 (CNS cancer)) | IC50 [1] | Inhibition Zone Diameter (IZ) (mm) Streptococcus faecalis (Streptococcus faecalis) | Inhibition Zone Diameter (IZ) (mm) Bacillus subtilis (Bacillus subtilis)
NNc1nc2cc(Br)ccc2nc1Cl [Compound 3, 6-Bromo-2-chloro-3-hydrazinylquinoxaline] | 1.95 µg/mL (≈ 7.13 µM) | 201 to 203 °C | 125 µg/mL (≈ 457 µM) | R (R (IZ = 0 mm)) | 30.6 ± 2.39 µg/mL (≈ 112 µM) | 26.7 ± 2.18 µg/mL (≈ 97.8 µM) | 14 mm | 15 mm
